Read-outs that look alike come from different tables or passages of the source.

One experiment relates to T98G glioma cells. The experiment is described as follows: MTT colorimetric assay, overall cell growth, T98G. It is filed as cell-based, human. The settings on record: 72 hours of incubation, read-out: In Vitro IC50 Growth Inhibitory Values, T98G. The source says: (§1) The amount of formazan obtained at the end of the experiment, measured by means of a spectrophotometer, is directly proportional to the number of living cells. Optical density determination thus enabled a quantitative measurement of the effect of the investigated compounds as compared to the control condition (untreated cells) and/or to other reference compounds. Eleven human cancer cell lines and one mouse melanoma cell-line (B16F10) described in Table 2 were used in the following MTT tests. These cancer cell lines cover seven histological cancer types including prostate (PC3), glioma (Hs683, T98G, U373, melanoma (VM21, VM28), non-small-cell-lung (A549), breast (MCF-7), colon (LoVo) and oesophageal (OE21, OE33) cancers. […] Each cell line was seeded in its appropriate culture medium. The detailed experimental procedure was the following: after a 24-hour period of incubation at 37° C., the culture medium was replaced by 100 μl of fresh medium in which the tested compound was previously dissolved, at the following molar concentrations: 10^-8 […] and 10^-4 M. Each experiment was performed in sestuplicates (6 times). After 72 hours of incubation at 37° C. with (experimental conditions) or without (control condition) the compound to be tested, the medium was replaced by 100 μl MTT dissolved in RPMI (1640 without phenol red) at a concentration of 0.5 or 1 mg/ml. The micro-wells were subsequently incubated during 3 hours and a half at 37° C. and centrifuged at 1300 rpm during 10 minutes. MTT was removed and formazan crystals formed were dissolved in 100 μl DMSO. The micro-wells were shaken for 5 minutes and read on a spectrophotometer at wavelengths of 570 nm (maximal formazan absorbance). For each experimental condition, the mean optical density was calculated, allowing the determination of the percentage of remaining living cells in comparison to the control. […] The origin of all the cell lines we used, along with their biological characteristics, and the validation procedures of the MTT colorimetric assay as employed here are fully detailed in Van Quaquebeke et al., 2005, J Med Chem 48:849-856; […]

For experiment [1], the system named is OE21 oesophageal cancer cells. Kind of experiment: MTT colorimetric assay, overall cell growth, OE21. In kind it is cell-based, human. The settings on record: read-out: In Vitro IC50 Growth Inhibitory Values, OE21.
Description: as §1
(Tetrazolium dyes change colour on reduction, which living cells bring about.)

Experiment [2] relates to Eleven human cancer cell lines. The experiment is described as follows: MTT colorimetric assay, across the eleven human cancer cell lines. It is filed as cell-based. The settings on record: mean ± SEM over the 11 human cancer cell lines, MTT, 72 hours; read-out: In Vitro IC50 Growth Inhibitory Values, m ± SEM.
Description: as §1

A further experiment deals with VM48 melanoma cells. Kind of experiment: MTT colorimetric assay, overall cell growth, VM48. It is filed as cell-based, human. The settings on record: MTT, 72 hours of incubation, read-out: In Vitro IC50 Growth Inhibitory Values, VM48.
The subject of the next experiment is LoVo colon cancer cells. The experiment is described as follows: MTT colorimetric assay, overall cell growth, LoVo. The settings on record: 72 hours of incubation, read-out: In Vitro IC50 Growth Inhibitory Values, LoVo. In kind it is cell-based, human.
Description: as §1

For experiment [3], the system named is OE33 oesophageal cancer cells. The experiment is described as follows: MTT colorimetric assay, overall cell growth, OE33. The settings on record: read-out: In Vitro IC50 Growth Inhibitory Values, OE33. In kind it is cell-based, human.
Description: as §1

In another experiment the test system is VM21 melanoma cells. The experiment is described as follows: MTT colorimetric assay, overall cell growth, VM21. It is filed as cell-based, human. The settings on record: MTT, 72 hours of incubation, read-out: In Vitro IC50 Growth Inhibitory Values, VM21.
Description: as §1

Experiment [4] deals with PC-3 prostate cancer cells. The experiment is described as follows: MTT colorimetric assay, overall cell growth, PC-3. In kind it is cell-based, human. The settings on record: 72 hours of incubation, read-out: In Vitro IC50 Growth Inhibitory Values, PC-3.
Description: as §1

Experiment [5] concerns B16F10 melanoma cell-line. The experiment is described as follows: MTT colorimetric assay, overall cell growth, B16F10. It is filed as cell-based, mouse. The settings on record: read-out: In Vitro IC50 Growth Inhibitory Values, B16F10.
Description: as §1

For experiment [6], the system named is MCF-7 breast cancer cells. Kind of experiment: MTT colorimetric assay, overall cell growth, MCF-7. It is filed as cell-based, human. The settings on record: read-out: In Vitro IC50 Growth Inhibitory Values, MCF-7.
Description: as §1

For another experiment, the system named is U373 glioblastoma cells. Kind of experiment: MTT colorimetric assay, overall cell growth, U373. It is filed as cell-based, human. The settings on record: 72 hours of incubation, read-out: In Vitro IC50 Growth Inhibitory Values, U373.
Description: as §1

Experiment [7] relates to A549 non-small-cell-lung cancer cells. The experiment is described as follows: MTT colorimetric assay, overall cell growth, A549. It is filed as cell-based, human. The settings on record: read-out: In Vitro IC50 Growth Inhibitory Values, A549.
Description: as §1

The next experiment has as its system Hs683 glioma cells. Kind of experiment: MTT colorimetric assay, overall cell growth, Hs683. It is filed as cell-based, human. The settings on record: read-out: In Vitro IC50 Growth Inhibitory Values, Hs683.
Description: as §1

As usually defined, the IC50 is the midpoint of a concentration-inhibition curve. For the compound `COc1cc(C(=O)O[C@H]2CCC[C@H]2OC(=O)c2ccc(O)c(OC)c2)ccc1O` [DLT14, cis-cyclopentane-1,2-diyl bis-(4-hydroxy-3-methoxybenzoate)], the IC50 in the experiment on T98G glioma cells (Homo sapiens, T98G) is 32 µM; in [1] (Homo sapiens, OE21, 72 hours of incubation) it was 28 µM; in [2], 29 µM; with VM48 melanoma cells (Homo sapiens), 22 µM; in the experiment on LoVo colon cancer cells (Homo sapiens, LoVo), 24 µM; in experiment [3] (Homo sapiens, OE33, 72 hours of incubation), 28 µM. The 50% inhibitory concentration (IC50) worked out at 33 µM in the experiment on VM21 melanoma cells (Homo sapiens); 36 µM in experiment [4] (Homo sapiens); 9 µM in experiment [5] (Mus musculus, B16-F10, 72 hours of incubation); 27 µM in [6] (Homo sapiens, MCF7, 72 hours of incubation); 36 µM in the experiment with U373 glioblastoma cells (Homo sapiens, U373 MG); 24 µM in [7] (Homo sapiens, A549, 72 hours of incubation). In addition, the IC50 with Hs683 glioma cells (Homo sapiens, Hs 683, 72 hours of incubation) was found to be 27 µM.

In the case of `COc1cc(C(=O)O[C@H]2CC[C@H](OC(=O)c3ccc(O)c(OC)c3)C2)ccc1O` (stereo in doubt) [DLT18, S,S-trans-cyclopentane-1,3-diyl bis-(4-hydroxy-3-methoxybenzoate)], the IC50 in the experiment on T98G glioma cells is > 100 µM; in experiment [1] (72 hours of incubation) it was 53 µM; in [2], > 100 µM; in the experiment with VM48 melanoma cells, 59 µM; in the experiment on LoVo colon cancer cells, 41 µM; in experiment [3] (72 hours of incubation) it was 64 µM. Further, the IC50 is > 100 µM in the experiment on VM21 melanoma cells; 43 µM in experiment [4]; 30 µM in experiment [5] (72 hours of incubation); 44 µM in [6] (72 hours of incubation); > 100 µM in the experiment with U373 glioblastoma cells; 43 µM in experiment [7] (72 hours of incubation). Besides, the IC50 in the experiment on Hs683 glioma cells (72 hours of incubation) was found to be 46 µM.

Regarding `COc1cc(C(=O)O[C@@H]2CCC[C@H]2OC(=O)c2ccc(O)c(OC)c2)ccc1O` (stereo in doubt) [DLT16, R,R-trans-cyclopentane-1,2-diyl bis-(4-hydroxy-3-methoxybenzoate)], the IC50 in the experiment with T98G glioma cells worked out at 32 µM; in experiment [1] (72 hours of incubation), 27 µM; in experiment [2] it was 27 µM; in the experiment with VM48 melanoma cells it was 29 µM; in the experiment on LoVo colon cancer cells, 29 µM; in experiment [3] (72 hours of incubation), 28 µM. Moreover, the IC50 came to 26 µM in the experiment with VM21 melanoma cells; 25 µM in [4]; 4 µM in experiment [5] (72 hours of incubation); 25 µM in [6] (72 hours of incubation); 31 µM with U373 glioblastoma cells; 21 µM in [7] (72 hours of incubation). Besides, in the experiment on Hs683 glioma cells (72 hours of incubation), the half-maximal inhibitory concentration (IC50) is 22 µM.

Take `COc1cc(C(=O)NCCCCCNC(=O)c2ccc(O)c(OC)c2)ccc1O` [DLT37, N,N′-Pentane-1,5-diyl bis-(4-hydroxy-3-methoxybenzamide)]: the IC50 in the experiment on T98G glioma cells was 55 µM; in experiment [1] (72 hours of incubation), 81 µM; in experiment [2] it was > 100 µM; in the experiment with VM48 melanoma cells, > 100 µM; with LoVo colon cancer cells, 41 µM; in experiment [3] (72 hours of incubation) it was > 100 µM. In addition, the IC50 in the experiment on VM21 melanoma cells was > 100 µM; in [4], > 100 µM; in experiment [5] (72 hours of incubation) it was > 100 µM; in experiment [6] (72 hours of incubation), 71 µM; in the experiment on U373 glioblastoma cells it was 91 µM; in experiment [7] (72 hours of incubation) it was 52 µM. Further, in the experiment with Hs683 glioma cells (72 hours of incubation), the IC50 turned out to be 80 µM.

Take `O=C(O[C@H]1CCCC[C@@H]1OC(=O)c1cc(O)c(O)c(O)c1)c1cc(O)c(O)c(O)c1` (stereo in doubt) [DLT33, S,S-trans-cyclohexane 1,2-diyl bis-(3,4,5-trihydroxybenzoate)]: the IC50 was 38 µM with T98G glioma cells; 43 µM in experiment [1] (72 hours of incubation); 43 µM in [2]; 51 µM with VM48 melanoma cells; 43 µM with LoVo colon cancer cells; 66 µM in experiment [3] (72 hours of incubation). The IC50 in the experiment with VM21 melanoma cells was 38 µM; in experiment [4], 44 µM; in experiment [5] (72 hours of incubation), 22 µM; in experiment [6] (72 hours of incubation), 58 µM; in the experiment with U373 glioblastoma cells, 35 µM; in experiment [7] (72 hours of incubation), 30 µM. Also, the IC50 in the experiment with Hs683 glioma cells (72 hours of incubation) stood at 32 µM.

On to `COc1cc(C(=O)NC2CCC(NC(=O)c3ccc(O)c(OC)c3)CC2)ccc1O` (mixture of isomers) [DLT40, N,N′-cis/trans-cyclohexane-1,4-diyl bis-(4-hydroxy-3-methoxybenzamide)], for which the IC50 is > 100 µM with T98G glioma cells; 81 µM in [1] (72 hours of incubation); > 100 µM in [2]; 98 µM in the experiment with VM48 melanoma cells; 78 µM with LoVo colon cancer cells; > 100 µM in experiment [3] (72 hours of incubation). In addition, the IC50 in the experiment with VM21 melanoma cells is > 100 µM; in experiment [4], 87 µM; in experiment [5] (72 hours of incubation) it was 36 µM; in [6] (72 hours of incubation), 80 µM; in the experiment with U373 glioblastoma cells, > 100 µM; in experiment [7] (72 hours of incubation), > 100 µM. The IC50 in the experiment with Hs683 glioma cells (72 hours of incubation) is 95 µM.

In the case of `COc1cc(C(=O)O[C@H]2CCCCC[C@@H]2OC(=O)c2ccc(O)c(OC)c2)ccc1O` (relative stereo) [DLT22, S,S-trans-cycloheptane-1,2-diyl bis-(4-hydroxy-3-methoxybenzoate)], the 50% inhibitory concentration (IC50) was 24 µM with T98G glioma cells; 49 µM in experiment [1] (72 hours of incubation); 52 µM in experiment [2]; 50 µM in the experiment with VM48 melanoma cells; 44 µM in the experiment on LoVo colon cancer cells; 55 µM in experiment [3] (72 hours of incubation). Also, the IC50 worked out at 51 µM in the experiment on VM21 melanoma cells; 88 µM in [4]; 10 µM in experiment [5] (72 hours of incubation); 69 µM in [6] (72 hours of incubation); 54 µM with U373 glioblastoma cells; 46 µM in experiment [7] (72 hours of incubation). Also, the IC50 with Hs683 glioma cells (72 hours of incubation) is 44 µM.

Regarding `O=C(O[C@@H]1CCCC[C@H]1OC(=O)c1cc(O)c(O)c(O)c1)c1cc(O)c(O)c(O)c1` (stereo in doubt) [DLT34, R,R-trans-cyclohexane 1,2-diyl bis-(3,4,5-trihydroxybenzoate)], the IC50 was found to be 31 µM in the experiment on T98G glioma cells; 37 µM in [1] (72 hours of incubation); 41 µM in [2]; 28 µM with VM48 melanoma cells; 34 µM in the experiment with LoVo colon cancer cells; 45 µM in experiment [3] (72 hours of incubation). For the same compound, the 50% inhibitory concentration (IC50) in the experiment with VM21 melanoma cells was 91 µM; in [4], 68 µM; in experiment [5] (72 hours of incubation) it was 0.3 µM; in experiment [6] (72 hours of incubation), 28 µM; in the experiment on U373 glioblastoma cells, 37 µM; in [7] (72 hours of incubation), 32 µM. Also, the concentration for half-maximal inhibition (IC50) with Hs683 glioma cells (72 hours of incubation) amounted to 24 µM.

For the origin of these results see patent US20110280940A1, “Di-Vanilloyl And Tri-Vanilloyl Derivatives For Use In Anti-Cancer Therapy” (priority 2008, published 2011).
